Data on ten molecules can be found in ChEMBL document CHEMBL4831504, “Rearranged Diels-Alder Adducts and Prenylated Flavonoids as Potential PTP1B Inhibitors from Morus nigra” (J Nat Prod, 2021).

For experiment [1], the target named is T1, Tyrosine-protein phosphatase non-receptor type 1 (Homo sapiens) (UniProt P18031).
T1 sequence (whole entry): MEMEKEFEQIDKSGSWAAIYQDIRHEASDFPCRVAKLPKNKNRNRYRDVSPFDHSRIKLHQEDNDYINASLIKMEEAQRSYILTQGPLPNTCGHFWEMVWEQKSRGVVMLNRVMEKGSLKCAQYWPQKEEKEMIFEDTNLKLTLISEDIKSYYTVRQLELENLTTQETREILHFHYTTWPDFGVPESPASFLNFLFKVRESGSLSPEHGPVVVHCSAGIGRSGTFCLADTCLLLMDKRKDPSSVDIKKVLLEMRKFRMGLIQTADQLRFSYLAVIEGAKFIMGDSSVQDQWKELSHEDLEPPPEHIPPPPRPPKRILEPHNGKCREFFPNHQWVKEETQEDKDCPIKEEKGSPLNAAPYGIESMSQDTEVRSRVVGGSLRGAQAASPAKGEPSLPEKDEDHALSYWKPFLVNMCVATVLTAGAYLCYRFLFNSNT
The experiment can be described thus: Inhibition of recombinant PTP1B catalytic domain (unknown origin) assessed as reduction in pNP formation using pNPP as substrate at 20 ug/ml by absorbance based analysis relative to control. As to conditions: dose 20.0 µg/ml.

In experiment [2] the target is T2, Tyrosine-protein phosphatase non-receptor type 1 (Homo sapiens, UniProt P18031).
T2 sequence (P18031 whole entry): T1 sequence (whole entry)
The experiment can be described thus: Inhibition of recombinant PTP1B catalytic domain (unknown origin) assessed as reduction in pNP formation using pNPP as substrate by absorbance based analysis.

`CC(C)=CCC/C(C)=C/Cc1c(O)cc(O)c2c(=O)c(CC=C(C)C)c(-c3ccc(O)cc3O)oc12`: in experiment [1], the inhibition turned out to be 95.8%. For the same molecule, the IC50 in experiment [2] came out at 5.3 µM.
For `CC(C)=CCc1cc(-c2oc3cc(O)cc(O)c3c(=O)c2CC=C(C)C)c(O)cc1O`, in that order: 77.6% and 12.5 µM.
On the same counts, the results for `CC(C)=CCc1c(O)cc(-c2cc3ccc(O)cc3o2)cc1O` [MORACIN C] are 90.6% and 10.2 µM.
Regarding `CC1(C)Oc2cc3oc(-c4cc(O)cc(O)c4)cc3cc2CC1O` (stereo not drawn) [(+/-)-MORACIN P], the inhibition in experiment [1] came out at 39.1%. Besides, the IC50 in experiment [2] is no less than 50 µM.
For `CC(C)=CCc1c(-c2ccc(O)cc2O)oc2c3c(cc(O)c2c1=O)OC(C)(C)C=C3` [MORUSIN], in that order: 71.5% and 22.1 µM.
As for `CC(C)=CCc1c(-c2ccc(O)cc2O)oc2cc3c(c(O)c2c1=O)C=CC(C)(C)O3` [CUDRAFLAVONE B], the inhibition in experiment [1] is 70.9%. The IC50 in experiment [2] turned out to be 20 µM.
On the same counts, the results for `CC(C)=C[C@H]1Oc2cc(O)ccc2-c2oc3cc(O)ccc3c(=O)c21` are 45.4% and no less than 50 µM.
For `CC(C)=CCc1cc(-c2oc3c(CC=C(C)C)c(O)cc(O)c3c(=O)c2CC=C(C)C)c(O)cc1O`, in experiment [1], the inhibition is 93.3%. For the same molecule, the half-inhibitory concentration (IC50) in experiment [2] was 7.7 µM.
On the same counts, the results for `CC(C)=CCc1c(O)ccc(C(=O)Oc2cc(-c3cc4ccc(O)cc4o3)cc(O)c2-c2cc(C)cc(-c3ccc(O)cc3O)c2)c1O` are 99.2% and 1.3 µM.
For `CC(C)=CCc1c(O)ccc(C(=O)Oc2cc(/C=C/c3ccc(O)cc3O)cc(O)c2-c2cc(C)cc(-c3ccc(O)cc3O)c2)c1O`, the inhibition in experiment [1] was 97%. In addition, the IC50 in experiment [2] was found to be 1.8 µM.

The term inhibition denotes the share of the control response that was lost under treatment. The term IC50 denotes the midpoint of a concentration-inhibition curve.
